According to ChEMBL document CHEMBL1201862, “PubChem BioAssay data set” (2004):
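Grown in 96-well plates, cells were treated for 48 hours with each compound at five concentrations. Insufficient inhibition: endpoint recorded as highest concentration tested. Abbreviation: GI50, concentration required for 50% inhibition of growth.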 Activity calls are given as the source filed them. Rule as the data show it: active = GI50 up to about 1.1 µM and inactive = higher.

Key:
Experiment in all cases: NCI anticancer screen, dose series, 48 h
LOX IMVI = system: LOX IMVI
PC-3 = system: PC-3
KM12 = system: KM12
SK-MEL-5 = system: SK-MEL-5
HCC 2998 = system: HCC 2998
SK-OV-3 = system: SK-OV-3
SNB-75 = system: SNB-75
HCT-15 = system: HCT-15
MDA-MB-231 = system: MDA-MB-231
NCI/ADR-RES = system: NCI/ADR-RES
HOP-92 = system: HOP-92
SN12C = system: SN12C
CCRF-CEM = system: CCRF-CEM
NCI-H23 = system: NCI-H23
786-0 = system: 786-0
MDA-MB-435 = system: MDA-MB-435
HL-60 = system: HL-60
RPMI-8226 = system: RPMI-8226
HOP-62 = system: HOP-62
OVCAR-3 = system: OVCAR-3

Measured: GI50

C=CC1(C)CCC2C(=CCC3C2(C)CC(O)C(O)C3(C)COC2OC(CO)C(O)C(O)C2O)C1 (configuration not stated)
> 100 µM: HCT-15
inactive: LOX IMVI > 100 µM | PC-3 > 100 µM | KM12 > 100 µM | SK-MEL-5 > 100 µM | HCC 2998 > 100 µM | SK-OV-3 > 100 µM | SNB-75 > 100 µM | MDA-MB-231 > 100 µM | NCI/ADR-RES > 100 µM | HOP-92 > 100 µM | SN12C > 100 µM | CCRF-CEM 46.1 µM | NCI-H23 > 100 µM | 786-0 > 100 µM | MDA-MB-435 > 100 µM | HL-60 57.9 µM

O=C1Nc2ccccc2/C1=N/N=C1NCCCCN1
> 100 µM: HCT-15
inactive: LOX IMVI > 100 µM | PC-3 > 100 µM | KM12 > 100 µM | SK-MEL-5 > 100 µM | RPMI-8226 > 100 µM | HCC 2998 > 100 µM | SK-OV-3 > 100 µM | HOP-62 > 100 µM | SNB-75 > 100 µM | MDA-MB-231 > 100 µM | NCI/ADR-RES > 100 µM | HOP-92 > 100 µM | SN12C > 100 µM | OVCAR-3 > 100 µM | CCRF-CEM > 100 µM | NCI-H23 > 100 µM | 786-0 > 100 µM | MDA-MB-435 > 100 µM

O=CN1CCN(C(=O)c2ccc(Cl)c(Cl)c2)C1=S
19.3 µM: HCT-15
inactive: LOX IMVI 9.29 µM | PC-3 14.7 µM | KM12 15.7 µM | RPMI-8226 2.84 µM | HCC 2998 18.5 µM | SK-OV-3 18.9 µM | HOP-62 16.1 µM | SNB-75 17.5 µM | MDA-MB-231 14.6 µM | NCI/ADR-RES 32.9 µM | SN12C 13.6 µM | OVCAR-3 15 µM | CCRF-CEM 7.13 µM | NCI-H23 20.9 µM | 786-0 4.53 µM | MDA-MB-435 16.6 µM | HL-60 24.6 µM

O=C1NC(=O)C(C(c2ccc([N+](=O)[O-])cc2)C2C(=O)NC(=O)NC2=O)C(=O)N1
> 100 µM: HCT-15
inactive: LOX IMVI > 100 µM | PC-3 > 100 µM | KM12 > 100 µM | SK-MEL-5 > 100 µM | RPMI-8226 > 100 µM | HOP-62 > 100 µM | MDA-MB-231 > 100 µM | NCI/ADR-RES > 100 µM | HOP-92 > 100 µM | SN12C > 100 µM | OVCAR-3 > 100 µM | CCRF-CEM 62.1 µM | NCI-H23 > 100 µM | 786-0 > 100 µM | MDA-MB-435 > 100 µM | HL-60 > 100 µM

CC1=C(C)C(=O)C(C2=CC(=O)C=CC2=O)=C(C2=CC(=O)C=CC2=O)C1=O
41 µM: HCT-15
inactive: LOX IMVI 26.7 µM | PC-3 62.8 µM | KM12 64.4 µM | SK-MEL-5 21.3 µM | HCC 2998 > 100 µM | SK-OV-3 > 100 µM | HOP-62 > 100 µM | SNB-75 > 100 µM | MDA-MB-231 18.4 µM | NCI/ADR-RES > 100 µM | HOP-92 36.4 µM | SN12C 31 µM | CCRF-CEM 14.1 µM | NCI-H23 > 100 µM | 786-0 76.7 µM | MDA-MB-435 27.9 µM | HL-60 14.9 µM

NC(Cc1ccc(S(=O)(=O)O)cc1)C(=O)NC(Cc1ccc(S(=O)(=O)O)cc1)C(=O)NC(Cc1ccc(S(=O)(=O)O)cc1)C(=O)O (configuration not stated)
> 100 µM: HCT-15
inactive: LOX IMVI > 100 µM | PC-3 > 100 µM | KM12 > 100 µM | SK-MEL-5 > 100 µM | RPMI-8226 > 100 µM | HCC 2998 > 100 µM | HOP-62 > 100 µM | SNB-75 > 100 µM | MDA-MB-231 > 100 µM | NCI/ADR-RES > 100 µM | SN12C > 100 µM | OVCAR-3 > 100 µM | CCRF-CEM > 100 µM | NCI-H23 > 100 µM | 786-0 > 100 µM | MDA-MB-435 > 100 µM | HL-60 > 100 µM

CCN(CC)CCNC(=O)c1ccc(I)cc1
inactive: LOX IMVI > 100 µM | PC-3 > 100 µM | KM12 > 100 µM | SK-MEL-5 28.4 µM | RPMI-8226 > 100 µM | HCC 2998 > 100 µM | SK-OV-3 > 100 µM | HOP-62 > 100 µM | SNB-75 33.8 µM | MDA-MB-231 > 100 µM | NCI/ADR-RES > 100 µM | HOP-92 > 100 µM | SN12C > 100 µM | OVCAR-3 > 100 µM | CCRF-CEM 89.5 µM | NCI-H23 > 100 µM | 786-0 > 100 µM | MDA-MB-435 > 100 µM
> 100 µM: HCT-15

COC1=CC(=O)c2c(CCNC(=O)OCc3ccccc3)n[nH]c2C1=O
inactive: LOX IMVI 4.54 µM | PC-3 30.4 µM | KM12 10 µM | SK-MEL-5 3.97 µM | RPMI-8226 13 µM | HCC 2998 19 µM | HOP-62 22.3 µM | MDA-MB-231 17.3 µM | NCI/ADR-RES 75.9 µM | SN12C 13.8 µM | OVCAR-3 18.1 µM | NCI-H23 4.01 µM | 786-0 17.5 µM | MDA-MB-435 2.16 µM | HL-60 16.1 µM
12.6 µM: HCT-15
